ChEMBL document CHEMBL1141133, “Synthesis of a resveratrol analogue with high ceramide-mediated proapoptotic activity on human breast cancer cells” (J Med Chem, 2005)

Tested on: MDA-MB-231
Assay: Inhibitory concentration required for antiproliferative activity against human MDA-MB-231 cells
Type: functional, cell-based

Compound	IC50
COc1ccc(/C=C/c2cc(O)cc(O)c2)cc1 [RESVERATROL 4'-METHYL ETHER]	> 50 µM
Oc1ccc(/C=C/c2cc(O)cc(O)c2)cc1 [RESVERATROL]	20.5 µM
COc1ccc(/C=C/c2cc(OC)cc(OC)c2)cc1 [TRISMETHOXYRESVERATROL]	1.2 µM
COc1cc(/C=C/c2ccc(O)cc2)cc(OC)c1 [PTEROSTILBENE]	10 µM

Continued, values first:

IC50	Compound
12.7 µM	Oc1cc(O)cc(-c2ccc3cc(O)ccc3c2)c1
7.2 µM	COc1cc(OC)cc(-c2ccc3cc(O)ccc3c2)c1
45.1 µM	COc1cc(OC)cc(-c2ccc3cc(OC)ccc3c2)c1
28.3 µM	COc1ccc2cc(-c3cc(O)cc(O)c3)ccc2c1
